Source: ChEMBL document CHEMBL4507294, “Data for DCP probe MSD-CYP11B2” (2021)

Assays:
[1] = tested on: Tyrosine-protein kinase ABL1 (Homo sapiens), P00519 [F317L]; details: Compound concentration 1000.0 nM
[2] = tested on: Tyrosine-protein kinase ABL1 (Homo sapiens), P00519 [T315I]; details: Compound concentration 1000.0 nM
[3] = molecular target: Activin receptor type-1B (Homo sapiens) (UniProt P36896); details: Compound concentration 1000.0 nM
[4] = molecular target: Activin receptor type-2A (Homo sapiens) (UniProt P27037); details: Compound concentration 1000.0 nM
[5] = tested on: ALK tyrosine kinase receptor (Homo sapiens), Q9UM73 [L1196M]; details: Compound concentration 1000.0 nM
[6] = molecular target: Ankyrin repeat and protein kinase domain-containing protein 1 (Homo sapiens) (UniProt Q8NFD2); details: Compound concentration 1000.0 nM
[7] = molecular target: BMP-2-inducible protein kinase (Homo sapiens) (UniProt Q9NSY1); details: Compound concentration 1000.0 nM
[8] = molecular target: Tyrosine-protein kinase Blk (Homo sapiens) (UniProt P51451); details: Compound concentration 1000.0 nM
[9] = molecular target: Cyclin-dependent kinase 11A (Homo sapiens) (UniProt Q9UQ88); details: Compound concentration 1000.0 nM
[10] = molecular target: Cyclin-dependent kinase 9 (Homo sapiens) (UniProt P50750); details: Compound concentration 1000.0 nM
[11] = molecular target: Cyclin-dependent kinase-like 2 (Homo sapiens) (UniProt Q92772); details: Compound concentration 1000.0 nM
[12] = molecular target: Casein kinase I isoform gamma-2 (Homo sapiens) (UniProt P78368); details: Compound concentration 1000.0 nM
[13] = molecular target: Death-associated protein kinase 2 (Homo sapiens) (UniProt Q9UIK4); details: Compound concentration 1000.0 nM
[14] = molecular target: Serine/threonine-protein kinase 17A (Homo sapiens) (UniProt Q9UEE5); details: Compound concentration 1000.0 nM
[15] = molecular target: Serine/threonine-protein kinase 17B (Homo sapiens) (UniProt O94768); details: Compound concentration 1000.0 nM
[16] = tested on: Epidermal growth factor receptor (Homo sapiens), P00533 [UNDEFINED MUTATION]; details: Compound concentration 1000.0 nM
[17] = tested on: Epidermal growth factor receptor (Homo sapiens), P00533 [G719S]; details: Compound concentration 1000.0 nM
[18] = tested on: Epidermal growth factor receptor (Homo sapiens), P00533 [UNDEFINED MUTATION]; details: Compound concentration 1000.0 nM; remark: listed apart in the source
[19] = tested on: Epidermal growth factor receptor (Homo sapiens), P00533 [L861Q]; details: Compound concentration 1000.0 nM
[20] = molecular target: Tyrosine-protein kinase Fyn (Homo sapiens) (UniProt P06241); details: Compound concentration 1000.0 nM
[21] = molecular target: Mast/stem cell growth factor receptor Kit (Homo sapiens) (UniProt P10721); details: Compound concentration 1000.0 nM
[22] = molecular target: Serine/threonine-protein kinase STK11 (Homo sapiens) (UniProt Q15831); details: Compound concentration 1000.0 nM
[23] = molecular target: Mitogen-activated protein kinase kinase kinase kinase 2 (Homo sapiens) (UniProt Q12851); details: Compound concentration 1000.0 nM
[24] = molecular target: Dual specificity mitogen-activated protein kinase kinase 2 (Homo sapiens) (UniProt P36507); details: Compound concentration 1000.0 nM
[25] = molecular target: Mitogen-activated protein kinase 13 (Homo sapiens) (UniProt O15264); details: Compound concentration 1000.0 nM
[26] = molecular target: Serine/threonine-protein kinase PAK 3 (Homo sapiens) (UniProt O75914); details: Compound concentration 1000.0 nM
[27] = molecular target: Cyclin-dependent kinase 14 (Homo sapiens) (UniProt O94921); details: Compound concentration 1000.0 nM
[28] = molecular target: Phosphatidylinositol 5-phosphate 4-kinase type-2 beta (Homo sapiens) (UniProt P78356); details: Compound concentration 1000.0 nM
[29] = molecular target: cAMP-dependent protein kinase catalytic subunit alpha (Homo sapiens) (UniProt P17612); details: Compound concentration 1000.0 nM
[30] = molecular target: Serine/threonine-protein kinase PknB (Mycobacterium tuberculosis) (UniProt P9WI81); details: Compound concentration 1000.0 nM
[31] = molecular target: Protein kinase C theta type (Homo sapiens) (UniProt Q04759); details: Compound concentration 1000.0 nM
[32] = molecular target: Serine/threonine-protein kinase D3 (Homo sapiens) (UniProt O94806); details: Compound concentration 1000.0 nM
[33] = molecular target: Interferon-induced, double-stranded RNA-activated protein kinase (Homo sapiens) (UniProt P19525); details: Compound concentration 1000.0 nM
[34] = molecular target: Serine/threonine-protein kinase RIO3 (Homo sapiens) (UniProt O14730); details: Compound concentration 1000.0 nM
[35] = molecular target: Ribosomal protein S6 kinase alpha-5 (Homo sapiens) (UniProt O75582); details: Compound concentration 1000.0 nM
[36] = molecular target: Mitogen-activated protein kinase kinase kinase 7 (Homo sapiens) (UniProt O43318); details: Compound concentration 1000.0 nM
[37] = molecular target: Serine/threonine-protein kinase TAO1 (Homo sapiens) (UniProt Q7L7X3); details: Compound concentration 1000.0 nM
[38] = molecular target: Serine/threonine-protein kinase TBK1 (Homo sapiens) (UniProt Q9UHD2); details: Compound concentration 1000.0 nM
[39] = molecular target: Serine/threonine-protein kinase 25 (Homo sapiens) (UniProt O00506); details: Compound concentration 1000.0 nM
[40] = molecular target: 5-hydroxytryptamine receptor 1B (Homo sapiens) (UniProt P28222); details: Compound concentration 10.0 uM
[41] = molecular target: 5-hydroxytryptamine receptor 1D (Homo sapiens) (UniProt P28221); details: Compound concentration 10.0 uM
[42] = molecular target: Sodium-dependent dopamine transporter (Homo sapiens) (UniProt Q01959); details: Compound concentration 10.0 uM
[43] = molecular target: Mu-type opioid receptor (Homo sapiens) (UniProt P35372); details: Compound concentration 10.0 uM
[44] = molecular target: Muscarinic acetylcholine receptor M3 (Homo sapiens) (UniProt P20309); details: Compound concentration 10.0 uM
[45] = molecular target: Muscarinic acetylcholine receptor M5 (Homo sapiens) (UniProt P08912); details: Compound concentration 10.0 uM
Chain of Muscarinic acetylcholine receptor M5 (Homo sapiens) (P08912 whole entry): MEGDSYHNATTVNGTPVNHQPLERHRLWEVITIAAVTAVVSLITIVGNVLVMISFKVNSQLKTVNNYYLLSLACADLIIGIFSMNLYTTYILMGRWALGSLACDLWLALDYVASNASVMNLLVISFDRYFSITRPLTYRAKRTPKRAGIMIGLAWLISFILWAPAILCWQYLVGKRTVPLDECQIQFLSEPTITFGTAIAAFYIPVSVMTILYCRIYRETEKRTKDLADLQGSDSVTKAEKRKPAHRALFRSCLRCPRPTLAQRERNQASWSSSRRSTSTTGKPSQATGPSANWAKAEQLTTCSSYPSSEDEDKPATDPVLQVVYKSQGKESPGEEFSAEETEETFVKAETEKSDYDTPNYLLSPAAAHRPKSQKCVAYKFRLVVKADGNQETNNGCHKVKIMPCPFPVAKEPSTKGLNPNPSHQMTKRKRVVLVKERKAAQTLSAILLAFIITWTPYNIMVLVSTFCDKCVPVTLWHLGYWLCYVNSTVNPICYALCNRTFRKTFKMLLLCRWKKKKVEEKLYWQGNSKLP

Chain of Mast/stem cell growth factor receptor Kit (Homo sapiens) (P10721 whole entry): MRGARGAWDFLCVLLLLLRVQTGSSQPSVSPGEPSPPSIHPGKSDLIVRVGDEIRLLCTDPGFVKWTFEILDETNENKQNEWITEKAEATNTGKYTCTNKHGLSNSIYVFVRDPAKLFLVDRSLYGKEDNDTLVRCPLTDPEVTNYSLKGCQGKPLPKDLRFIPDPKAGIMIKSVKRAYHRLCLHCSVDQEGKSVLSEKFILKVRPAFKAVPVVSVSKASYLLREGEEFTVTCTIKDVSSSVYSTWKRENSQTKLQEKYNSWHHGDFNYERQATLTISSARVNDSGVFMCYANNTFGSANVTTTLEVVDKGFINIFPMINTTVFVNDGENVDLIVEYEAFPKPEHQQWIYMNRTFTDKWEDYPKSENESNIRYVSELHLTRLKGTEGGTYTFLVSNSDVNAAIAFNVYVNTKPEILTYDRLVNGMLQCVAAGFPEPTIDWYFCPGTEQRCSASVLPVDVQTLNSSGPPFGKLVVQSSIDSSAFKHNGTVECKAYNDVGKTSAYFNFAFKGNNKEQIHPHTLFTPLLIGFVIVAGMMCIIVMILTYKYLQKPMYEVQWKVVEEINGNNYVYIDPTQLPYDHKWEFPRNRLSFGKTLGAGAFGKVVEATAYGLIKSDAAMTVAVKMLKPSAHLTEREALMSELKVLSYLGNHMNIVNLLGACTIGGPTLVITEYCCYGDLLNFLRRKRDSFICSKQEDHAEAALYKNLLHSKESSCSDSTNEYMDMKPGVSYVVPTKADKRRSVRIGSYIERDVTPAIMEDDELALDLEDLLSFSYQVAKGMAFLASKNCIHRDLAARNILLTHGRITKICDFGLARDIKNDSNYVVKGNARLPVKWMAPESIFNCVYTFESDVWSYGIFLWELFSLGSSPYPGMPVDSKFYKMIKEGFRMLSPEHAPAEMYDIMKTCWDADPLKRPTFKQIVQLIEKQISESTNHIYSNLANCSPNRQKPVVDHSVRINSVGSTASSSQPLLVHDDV
Chain of Serine/threonine-protein kinase 25 (Homo sapiens) (O00506 whole entry, looked up): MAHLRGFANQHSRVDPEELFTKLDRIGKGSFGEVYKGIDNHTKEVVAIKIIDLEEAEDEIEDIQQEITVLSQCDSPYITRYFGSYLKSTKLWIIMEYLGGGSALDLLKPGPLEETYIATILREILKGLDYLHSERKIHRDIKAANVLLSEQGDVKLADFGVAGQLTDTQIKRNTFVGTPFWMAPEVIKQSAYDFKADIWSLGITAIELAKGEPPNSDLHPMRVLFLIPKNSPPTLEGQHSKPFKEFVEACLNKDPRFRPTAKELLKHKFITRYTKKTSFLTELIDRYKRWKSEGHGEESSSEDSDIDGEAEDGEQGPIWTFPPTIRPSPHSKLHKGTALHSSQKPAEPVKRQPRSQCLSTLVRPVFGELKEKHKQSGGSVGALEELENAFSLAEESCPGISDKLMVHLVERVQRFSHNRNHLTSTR
Chain of Tyrosine-protein kinase Blk (Homo sapiens) (P51451 2-505 limits assumed): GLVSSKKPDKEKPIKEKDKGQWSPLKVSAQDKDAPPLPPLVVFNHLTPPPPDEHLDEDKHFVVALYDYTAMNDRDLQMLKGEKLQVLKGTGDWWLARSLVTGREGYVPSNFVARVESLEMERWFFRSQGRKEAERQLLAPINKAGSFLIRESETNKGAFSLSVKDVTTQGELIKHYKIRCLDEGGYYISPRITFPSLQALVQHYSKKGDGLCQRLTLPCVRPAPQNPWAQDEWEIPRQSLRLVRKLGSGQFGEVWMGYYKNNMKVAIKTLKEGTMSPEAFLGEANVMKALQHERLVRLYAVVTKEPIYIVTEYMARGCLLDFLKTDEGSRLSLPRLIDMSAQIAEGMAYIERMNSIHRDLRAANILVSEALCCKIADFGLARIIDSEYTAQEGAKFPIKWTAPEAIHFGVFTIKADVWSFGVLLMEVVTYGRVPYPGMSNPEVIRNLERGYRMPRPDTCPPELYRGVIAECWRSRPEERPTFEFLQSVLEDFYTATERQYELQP
Chain of Dual specificity mitogen-activated protein kinase kinase 2 (Homo sapiens) (P36507 whole entry): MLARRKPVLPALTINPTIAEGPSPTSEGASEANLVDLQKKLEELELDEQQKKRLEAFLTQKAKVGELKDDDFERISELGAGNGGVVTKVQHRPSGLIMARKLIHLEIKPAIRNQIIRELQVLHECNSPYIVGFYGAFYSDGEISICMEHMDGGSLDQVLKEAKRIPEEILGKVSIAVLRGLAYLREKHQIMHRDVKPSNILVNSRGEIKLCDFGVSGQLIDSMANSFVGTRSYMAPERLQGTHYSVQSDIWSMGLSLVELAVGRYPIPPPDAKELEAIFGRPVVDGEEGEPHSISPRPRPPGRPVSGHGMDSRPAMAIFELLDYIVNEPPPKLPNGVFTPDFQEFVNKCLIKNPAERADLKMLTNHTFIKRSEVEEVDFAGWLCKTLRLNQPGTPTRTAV
Chain of 5-hydroxytryptamine receptor 1D (Homo sapiens) (P28221 whole entry): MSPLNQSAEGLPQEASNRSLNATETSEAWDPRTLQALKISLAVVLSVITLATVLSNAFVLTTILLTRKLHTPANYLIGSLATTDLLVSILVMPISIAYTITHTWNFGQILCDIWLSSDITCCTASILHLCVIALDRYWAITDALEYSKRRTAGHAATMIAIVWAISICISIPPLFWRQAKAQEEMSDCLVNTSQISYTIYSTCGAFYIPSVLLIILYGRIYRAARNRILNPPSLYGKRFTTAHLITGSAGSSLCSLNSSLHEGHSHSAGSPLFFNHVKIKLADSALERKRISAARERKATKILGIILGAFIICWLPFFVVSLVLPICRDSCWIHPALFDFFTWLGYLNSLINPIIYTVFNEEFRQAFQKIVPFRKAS
Chain of Mu-type opioid receptor (Homo sapiens) (P35372 whole entry): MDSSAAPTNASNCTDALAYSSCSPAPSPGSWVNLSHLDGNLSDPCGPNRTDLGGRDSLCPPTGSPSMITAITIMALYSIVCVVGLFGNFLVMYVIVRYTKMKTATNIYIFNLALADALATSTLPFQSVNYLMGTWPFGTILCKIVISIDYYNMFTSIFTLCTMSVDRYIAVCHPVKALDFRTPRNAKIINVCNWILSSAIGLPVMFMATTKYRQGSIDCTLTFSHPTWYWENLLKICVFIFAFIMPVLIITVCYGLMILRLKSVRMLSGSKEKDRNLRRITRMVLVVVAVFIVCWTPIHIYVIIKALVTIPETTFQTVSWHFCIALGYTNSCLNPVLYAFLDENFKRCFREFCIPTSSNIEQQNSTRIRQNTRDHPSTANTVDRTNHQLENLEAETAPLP
Chain of Cyclin-dependent kinase 9 (Homo sapiens) (P50750 whole entry): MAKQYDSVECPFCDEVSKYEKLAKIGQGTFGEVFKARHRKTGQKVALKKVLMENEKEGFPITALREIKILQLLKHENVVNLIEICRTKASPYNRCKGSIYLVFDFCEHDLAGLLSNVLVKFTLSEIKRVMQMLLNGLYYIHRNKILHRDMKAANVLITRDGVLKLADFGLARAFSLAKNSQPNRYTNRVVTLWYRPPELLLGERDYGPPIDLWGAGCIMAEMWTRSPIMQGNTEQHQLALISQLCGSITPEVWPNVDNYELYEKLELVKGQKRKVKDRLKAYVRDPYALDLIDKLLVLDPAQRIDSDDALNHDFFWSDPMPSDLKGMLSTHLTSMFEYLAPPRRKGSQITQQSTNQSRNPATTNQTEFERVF
Chain of Activin receptor type-2A (Homo sapiens) (P27037 whole entry): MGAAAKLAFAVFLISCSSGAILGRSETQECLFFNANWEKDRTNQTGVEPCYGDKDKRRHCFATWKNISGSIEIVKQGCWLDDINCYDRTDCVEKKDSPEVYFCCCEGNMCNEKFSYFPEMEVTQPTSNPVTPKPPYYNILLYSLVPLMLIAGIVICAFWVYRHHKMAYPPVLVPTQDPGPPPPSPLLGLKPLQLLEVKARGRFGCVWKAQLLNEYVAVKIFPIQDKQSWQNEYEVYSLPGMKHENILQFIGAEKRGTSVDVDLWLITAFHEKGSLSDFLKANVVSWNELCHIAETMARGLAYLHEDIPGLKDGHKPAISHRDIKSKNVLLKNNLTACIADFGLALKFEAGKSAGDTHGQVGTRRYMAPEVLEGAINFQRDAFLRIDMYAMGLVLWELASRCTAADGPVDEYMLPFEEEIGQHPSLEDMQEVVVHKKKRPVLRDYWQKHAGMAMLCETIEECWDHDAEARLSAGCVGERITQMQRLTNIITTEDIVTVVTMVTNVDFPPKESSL
Chain of Phosphatidylinositol 5-phosphate 4-kinase type-2 beta (Homo sapiens) (P78356 whole entry): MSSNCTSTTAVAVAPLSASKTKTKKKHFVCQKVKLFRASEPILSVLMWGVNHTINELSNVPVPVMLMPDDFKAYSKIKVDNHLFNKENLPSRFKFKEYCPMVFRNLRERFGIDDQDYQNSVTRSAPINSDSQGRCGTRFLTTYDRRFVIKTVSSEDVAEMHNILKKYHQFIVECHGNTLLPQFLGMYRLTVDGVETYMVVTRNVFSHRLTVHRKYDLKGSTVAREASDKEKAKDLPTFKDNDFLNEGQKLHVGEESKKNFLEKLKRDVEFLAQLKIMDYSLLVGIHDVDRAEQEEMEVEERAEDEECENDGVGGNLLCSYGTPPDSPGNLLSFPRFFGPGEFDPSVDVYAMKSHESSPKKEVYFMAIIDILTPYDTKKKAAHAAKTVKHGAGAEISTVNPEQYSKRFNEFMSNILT

FC(F)(F)c1ccc2c(c1)nc(-c1cccnc1)n2C1CC1 [MSD-CYP11B2-Negative-control]
inactive: residual activity [1] 100% | residual activity [2] 100% | residual activity [3] 98% | residual activity [4] 100% | residual activity [5] 100% | residual activity [6] 100% | residual activity [7] 100% | residual activity [8] 96% | residual activity [9] 100% | residual activity [10] 100% | residual activity [11] 100% | residual activity [12] 100% | residual activity [13] 100% | residual activity [14] 100% | residual activity [15] 100% | residual activity [16] 100% | residual activity [17] 93% | residual activity [18] 100% | residual activity [19] 100% | residual activity [20] 100% | residual activity [21] 85% | residual activity [22] 100% | residual activity [23] 73% | residual activity [24] 100% | residual activity [25] 100% | residual activity [26] 100% | residual activity [27] 100% | residual activity [28] 82% | residual activity [29] 100% | residual activity [30] 100% | residual activity [31] 100% | residual activity [32] 100% | residual activity [33] 89% | residual activity [34] 93% | residual activity [35] 100% | residual activity [36] 100% | residual activity [37] 100% | residual activity [38] 82% | residual activity [39] 99% | inhibition [40] 8.83% | inhibition [41] 6.79% | inhibition [42] 15.3% | inhibition [43] -2.5% | inhibition [44] -1.22% | inhibition [45] -6.15%

CC(C)(O)c1cncc(-c2nc3ccc(F)cc3n2C2CC2)c1 [MSD-CYP11B2]
inactive: residual activity [1] 100% | residual activity [2] 100% | residual activity [3] 99% | residual activity [4] 87% | residual activity [5] 100% | residual activity [6] 100% | residual activity [7] 100% | residual activity [8] 98% | residual activity [9] 100% | residual activity [10] 100% | residual activity [11] 97% | residual activity [12] 100% | residual activity [13] 100% | residual activity [14] 94% | residual activity [15] 77% | residual activity [16] 100% | residual activity [17] 100% | residual activity [18] 100% | residual activity [19] 100% | residual activity [20] 100% | residual activity [21] 86% | residual activity [22] 98% | residual activity [23] 98% | residual activity [24] 100% | residual activity [25] 100% | residual activity [26] 100% | residual activity [27] 100% | residual activity [28] 99% | residual activity [29] 100% | residual activity [30] 100% | residual activity [31] 100% | residual activity [32] 100% | residual activity [33] 91% | residual activity [34] 100% | residual activity [35] 100% | residual activity [36] 100% | residual activity [37] 100% | residual activity [38] 72% | residual activity [39] 100% | inhibition [40] 16.8% | inhibition [41] 0.75% | inhibition [42] 1.47% | inhibition [43] 0.18% | inhibition [44] 1.04% | inhibition [45] -2.81%
